These results are taken from patent US20060247320A1, “Compounds for inhibiting KSP kinesin activity” (priority 2005, published 2006).

Like-named read-outs stand apart in the source and are kept apart here. Where only a bound is given, the exact number is not on record here.

Series [1] deals with T1, KSP motor domain (Homo sapiens, UniProt P52732).
T1 sequence (P52732 18-359 limits assumed): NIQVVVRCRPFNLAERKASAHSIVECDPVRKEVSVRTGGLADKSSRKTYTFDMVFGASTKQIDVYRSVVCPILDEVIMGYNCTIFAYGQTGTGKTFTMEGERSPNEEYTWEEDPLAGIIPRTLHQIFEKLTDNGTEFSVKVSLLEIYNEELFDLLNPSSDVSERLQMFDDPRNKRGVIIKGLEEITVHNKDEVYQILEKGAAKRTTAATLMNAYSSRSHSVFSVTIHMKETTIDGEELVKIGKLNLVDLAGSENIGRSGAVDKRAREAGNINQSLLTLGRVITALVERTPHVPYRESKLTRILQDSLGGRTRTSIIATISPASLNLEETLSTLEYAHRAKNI
The series can be described thus: biochemical. The note with it: read-out: IC50.

[2] abbreviates: KSP inhibitory activity, end-point assay, class symbols (Table 1).
Setting [3] is: exact IC50 values, end-point assay (Table 2).

One may read the melting point as the temperature, or range, at which the solid turns liquid. The compound `CCOC(=O)c1nc2cc3c(nc2s1)CCC(C(C)(C)C)C3` (racemic) displayed a melting point of 84 to 86 °C.

A word on the IC50: it is the point on the concentration scale where inhibition reaches its midpoint. For the compound `CC(C)(C)[C@@H]1CCc2nc3sc(C(=O)N[C@H](CN)c4cccc(NC(=O)c5cn[nH]c5)c4)cc3cc2C1` [Example 237], the IC50 in series [1] (setting [2]) is less than 100 nM; in series [1] (setting [3]), 10 nM.

Consider `CC(C)(C)[C@@H]1CCc2nc3sc(C(=O)N[C@H](CN)c4cccc(NC(=O)c5csnn5)c4)cc3cc2C1` [Example 257], for which the IC50 in series [1] (setting [2]) was less than 100 nM; in series [1] (setting [3]), 23 nM.

`CCCC(C)(C)C1CCc2nc3sc(C#N)c(N)c3cc2C1` (stereo not shown) [Example 10]: the IC50 in series [1] (setting [2]) fell in the range of 100 to 1000 nM.

With `CCCCC1CCc2nc3sc(C#N)c(N)c3cc2C1` (stereo not shown) [Example 32], the IC50 in series [1] (setting [2]) was more than 10000 nM.

Regarding `CC(C)(C)C1CCc2nc3sc(-c4ncc(CO)o4)cc3cc2C1` (stereo not shown) [Example 185, [2-(6-tert-Butyl-5,6,7,8-tetrahydrothieno[2,3-b]quinolin-2-yl)oxazol-5-yl]methanol], the IC50 in series [1] (setting [2]) fell in the range of 1000 to 10000 nM.

With `CC(C)[C@@H](CN)NC(=O)c1cc2cc3c(nc2s1)CCC(C(C)(C)C)C3` (stereo partly drawn) [Example 175, 6-tert-butyl-5,6,7,8-tetrahydrothieno[2,3-b]quinoline-2-carboxylic acid [(1S)-1-aminomethyl-2-methylpropyl)amide], the IC50 in series [1] (setting [2]) lay within 1000 to 10000 nM.

For `CC(C)(C)C1CCCc2nc3sc(C#N)c(N)c3cc2C1` (stereo not shown) [Example 40], the figures for the IC50 in series [1] (setting [2]) and in series [1] (setting [3]) were less than 100 nM and 60 nM, respectively.

For the compound `Cc1cc(C(=O)Nc2cccc([C@@H](CN)NC(=O)c3cc4cc5c(nc4s3)CC[C@@H](C(C)(C)C)C5)c2)n[nH]1` [Example 242], the IC50 in series [1] (setting [2]) is less than 100 nM.

On to `CN1CCN(C(=O)Nc2cccc([C@@H](CN)NC(=O)c3cc4cc5c(nc4s3)CC[C@@H](C(C)(C)C)C5)c2)CC1` [Example 275, 6(R)-tert-butyl-5,6,7,8-tetrahydro-thieno[2,3-b]quinoline-2-carboxylic acid (2-amino-1(S)-{3-[(4-methyl-piperazine-1-carbonyl)-amino]-phenyl}-ethyl)-amide], for which the IC50 in series [1] (setting [2]) is less than 100 nM.

On to `CC[C@H](NC(=O)c1cc2cc3c(nc2s1)CCC(C(C)(C)C)C3)C(=N)N` (stereo partly shown) [Example 170], for which the IC50 in series [1] (setting [2]) lay in the range of 100 to 1000 nM.

Consider `CC(C)(C)C1CCc2nc3sc(C(N)=O)c(N)c3cc2C1` (stereo not shown) [Example 118, 3-Amino-6-tert-butyl-5,6,7,8-tetrahydrothieno[2,3-b]quinoline-2-carboxylic acid amide], for which the IC50 in series [1] (setting [2]) was 1000 to 10000 nM.

For the compound `CCC(C)(C)C1CCc2nc3sc(C(N)=O)cc3c(O)c2C1` (stereo not shown) [Example 116], in series [1] (setting [2]), the half-maximal inhibitory concentration (IC50) is more than 10000 nM.
